Columns and labels:
[1] = tested on: human large intestine cancer cell line (HCT-116); assay: Human large intestine cancer (HCT-116) cell growth inhibition test; type: cell-based; conditions: HCT-116, 72 h, culture for 3 days, sulforhodamine B, read-out: GI50 value, HCT-116 cell growth inhibition
Method in brief: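 HCT-116 cells were seeded at 0.5 to 2.0×10^3 cells/well in McCoy's 5A with 10% FBS and dosed with compound at 0.1% final DMSO after overnight culture. Growth was measured by sulforhodamine B absorbance after 3 days. GI50 was calculated from the inhibition rate at each concentration.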

[2] = target: T1, CDK7 (Homo sapiens, UniProt P50613); assay: CDK7 enzyme inhibition test; type: biochemical; conditions: [γ-33P]ATP, MBP substrate, 60 min preincubation at 25°C; Ki=IC50/(1+S/Km); read-out: Ki value of CDK7 inhibitory activity
T1 construct: purchased Carna Biosciences, Inc. 04-108
T1 sequence (P50613 whole entry): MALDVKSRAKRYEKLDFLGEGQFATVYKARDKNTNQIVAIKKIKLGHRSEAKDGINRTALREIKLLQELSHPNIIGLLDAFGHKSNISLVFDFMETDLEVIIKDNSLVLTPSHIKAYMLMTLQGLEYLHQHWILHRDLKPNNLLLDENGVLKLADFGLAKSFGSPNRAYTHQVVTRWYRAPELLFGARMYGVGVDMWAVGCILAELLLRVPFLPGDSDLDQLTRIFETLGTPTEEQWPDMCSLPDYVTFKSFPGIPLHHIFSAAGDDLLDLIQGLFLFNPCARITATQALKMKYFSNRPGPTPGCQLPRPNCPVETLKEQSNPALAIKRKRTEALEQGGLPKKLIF
T1 sequence (P51946 whole entry partner): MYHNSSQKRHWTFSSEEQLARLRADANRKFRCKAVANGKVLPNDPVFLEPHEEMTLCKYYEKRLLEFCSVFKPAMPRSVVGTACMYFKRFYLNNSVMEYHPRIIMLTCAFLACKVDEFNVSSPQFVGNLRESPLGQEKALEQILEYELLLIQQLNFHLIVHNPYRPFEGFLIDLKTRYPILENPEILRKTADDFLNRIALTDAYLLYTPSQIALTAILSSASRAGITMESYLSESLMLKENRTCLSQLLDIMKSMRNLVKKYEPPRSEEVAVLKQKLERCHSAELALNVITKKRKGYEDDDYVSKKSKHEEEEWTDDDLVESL
T1 sequence (P51948 whole entry partner): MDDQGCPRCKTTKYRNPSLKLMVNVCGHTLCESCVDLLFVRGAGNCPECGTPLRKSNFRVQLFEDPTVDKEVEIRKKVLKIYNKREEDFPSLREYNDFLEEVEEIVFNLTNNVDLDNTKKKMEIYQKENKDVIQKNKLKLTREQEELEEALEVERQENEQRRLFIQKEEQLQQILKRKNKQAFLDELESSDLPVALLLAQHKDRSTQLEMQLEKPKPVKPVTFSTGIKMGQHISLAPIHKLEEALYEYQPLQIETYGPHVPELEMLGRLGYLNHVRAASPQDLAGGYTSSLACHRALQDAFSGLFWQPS
Method in brief: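 Commercial human CDK7 with myelin basic protein substrate in HEPES pH 7.4 buffer with DTT, Triton X-100, MgCl2; compound preincubated 60 min at 25° C, then reaction run 20 min at 30° C after adding [γ-^33P]ATP (500 μM solution). TCA-precipitated ^33P-MBP counted by scintillation; IC50 converted to Ki via Ki=IC50/(1+S/Km).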

[3] = target: T2, CDK2 (Homo sapiens, UniProt P24941); assay: CDK2 enzyme inhibition test; type: biochemical; conditions: [γ-33P]ATP, MBP substrate; Ki=IC50/(1+S/Km); read-out: Ki value of CDK2 inhibitory activity
T2 construct: purchased Invitrogen Corp. PV3267
Experimental: The preparation of a buffer solution was performed by mixing a N-2-hydroxyethylpiperazine-N′-2-ethanesulfonic acid buffer solution (HEPES buffer solution) (pH 7.4), dithiothreitol (DTT), Triton X-100, and magnesium chloride (MgCl2). A 500 μM [γ-^33P]ATP solution was used by diluting a 10 mM ATP solution and a commercially available [γ-^33P]ATP solution (manufactured by Perkin Elmer, Inc., Code No. NEG-302H) with the buffer solution. A CDK2 solution was used by diluting commercially available CDK2 (manufactured by Invitrogen Corp., Catalog No. PV3267) with the buffer solution. A substrate solution was used by diluting myelin basic protein (MBP) with the buffer solution. As for the preparation of a reaction solution, the buffer solution, the 500 μM [γ-^33P]ATP solution, the CDK2 solution, and the substrate solution were mixed at 4° C. to obtain a reaction solution.
(§1) CDK2 enzyme reaction was performed by adding 5 μL of a test compound solution prepared with 10% DMSO/90% injectable distilled water, and 45 μL of the reaction solution in a 1.5 mL microtube at 4° C. and reacting in the microtube at 30° C. for 20 minutes in a water bath incubator. After the reaction, a 10% aqueous trichloroacetic acid (TCA) solution was added to each microtube while cooled to 4° C., and mixed in a vortex mixer to terminate the reaction. The resultant was left standing at 4° C. for 10 minutes and then centrifuged, and the supernatant was discarded. Next, a 2% aqueous trichloroacetic acid (TCA) solution was added thereto, mixed in vortex mixer, and then centrifuged, and the supernatant was discarded. This washing operation was performed twice. After the washing, precipitates were dissolved in a 1 N aqueous sodium hydroxide (NaOH) solution, and the energy quantity (radioactivity) of the reaction product was measured with a liquid scintillation counter.
The calculation of the inhibitory activity of the test compound against CDK2 was performed as a test compound concentration inhibiting 50% of the amount of ^33P bound to MBP (IC50 value) by using EXSUS (version 8.1.0, manufactured by CAC Exicare Corp.).
(§2) The calculation of a Ki value was performed according to the following calculation expression wherein S represents the concentration of ATP contained in the reaction solution, and Km represents a Michaelis-Menten constant: Ki=IC50/(1+S/Km)

[4] = target: T3, PLK1 (Homo sapiens, UniProt P53350); assay: PLK1 enzyme (polo-like kinase) inhibition test; type: biochemical; conditions: [γ-33P]ATP, casein substrate; Ki=IC50/(1+S/Km); read-out: Ki value of PLK1 inhibitory activity
T3 construct: purchased Carna Biosciences, Inc. 05-157
T3 sequence (P53350 whole entry): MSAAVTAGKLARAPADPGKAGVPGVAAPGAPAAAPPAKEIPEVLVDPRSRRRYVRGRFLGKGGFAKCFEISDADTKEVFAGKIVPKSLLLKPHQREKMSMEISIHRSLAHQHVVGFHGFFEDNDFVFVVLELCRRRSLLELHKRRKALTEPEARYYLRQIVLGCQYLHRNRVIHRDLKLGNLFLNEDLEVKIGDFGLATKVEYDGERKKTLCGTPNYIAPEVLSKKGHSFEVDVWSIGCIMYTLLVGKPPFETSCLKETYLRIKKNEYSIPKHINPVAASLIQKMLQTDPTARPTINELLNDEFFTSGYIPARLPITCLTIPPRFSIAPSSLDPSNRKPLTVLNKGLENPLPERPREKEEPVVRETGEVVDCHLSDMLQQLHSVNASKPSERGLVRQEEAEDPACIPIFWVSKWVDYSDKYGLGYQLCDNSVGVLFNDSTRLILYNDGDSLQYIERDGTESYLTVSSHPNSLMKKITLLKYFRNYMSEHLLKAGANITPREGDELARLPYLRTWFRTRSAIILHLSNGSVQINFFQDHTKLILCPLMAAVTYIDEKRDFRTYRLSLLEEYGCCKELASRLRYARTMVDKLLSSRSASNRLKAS
Experimental: The preparation of a buffer solution was performed by mixing a 3-morpholinopropanesulfonic acid buffer solution (MOPS buffer solution) (pH 7.0), dithiothreitol (DTT), and magnesium acetate (Mg(CH3COO)2). A 1 mM [γ-^33P]ATP solution was used by diluting a 10 mM ATP solution and a commercially available [γ-^33P]ATP solution (manufactured by Perkin Elmer, Inc., Code No. NEG-302H) with the buffer solution. A PLK1 solution was used by diluting commercially available PLK1 (manufactured by Carna Biosciences, Inc., Catalog No. 05-157) with the buffer solution. A substrate solution was used by diluting casein with the buffer solution. As for the preparation of a reaction solution, the buffer solution, the 500 μM [γ-^33P]ATP solution, the PLK1 solution, and the substrate solution were mixed at 4° C. to obtain a reaction solution.
as §1, with “PLK1 enzyme reaction” for “CDK2 enzyme reaction”, “mixed in a vortex mixer,” for “mixed in vortex mixer,”
The calculation of the inhibitory activity of the test compound against PLK1 was performed as a test compound concentration inhibiting 50% of the amount of ^33P bound to casein (IC50 value) by using EXSUS (version 8.1.0, manufactured by CAC Exicare Corp.).
as §2

GI50 [1]	Ki [2]	Ki [3]	Ki [4]	Compound
≤ 0.1 µM	≤ 0.05 µM	≥ 1 µM	≥ 5 µM	CC(F)(F)c1ccccc1NC(=O)N1Cc2c(NC(=O)C3([Si](C)(C)C)CCC3)n[nH]c2C1(C)C [IV-45, N-[2-(1,1-Difluoroethyl)phenyl]-6,6-dimethyl-3-[1-(trimethylsilyl)cyclobutanecarboxamido]-4,6-dihydropyrrolo[3,4-c]pyrazole-5(1H)-carboxamide]
≤ 0.1 µM	≤ 0.05 µM	≥ 1 µM	≥ 5 µM	CC1(C)c2[nH]nc(NC(=O)C3([Si](C)(C)C)CCC3)c2CN1C(=O)Nc1ccccc1OC(F)F [IV-87, N-[2-(Difluoromethoxy)phenyl]-6,6-dimethyl-3-[1-(trimethylsilyl)cyclobutanecarboxamido]-4,6-dihydropyrrolo[3,4-c]pyrazole-5(1H)-carboxamide]
≤ 0.1 µM	≤ 0.05 µM	≥ 1 µM	≥ 5 µM	CC1(C)c2[nH]nc(NC(=O)C3([Si](C)(C)C)CCC3)c2CN1C(=O)Nc1c(F)cccc1F [IV-105, N-(2,6-Difluorophenyl)-6,6-dimethyl-3-[1-(trimethylsilyl)cyclobutanecarboxamido]-4,6-dihydropyrrolo[3,4-c]pyrazole-5(1H)-carboxamide]
≤ 0.1 µM	≤ 0.05 µM	≥ 1 µM	≥ 5 µM	[2H]C([2H])([2H])Oc1cccc(F)c1NC(=O)N1Cc2c(NC(=O)C3([Si](C)(C)C)CCC3)n[nH]c2C1(C)C [IV-177, N-[2-Fluoro-6-(methoxy-d3)phenyl]-6,6-dimethyl-3-[1-(trimethylsilyl)cyclobutanecarboxamido]-4,6-dihydropyrrolo[3,4-c]pyrazole-5(1H)-carboxamide]
≤ 0.1 µM	≤ 0.05 µM	≥ 1 µM	≥ 5 µM	CC1(C)c2[nH]nc(NC(=O)C3([Si](C)(C)C)CCC3)c2CN1C(=O)Nc1c(F)cccc1C#N [IV-185, N-(2-Cyano-6-fluorophenyl)-6,6-dimethyl-3-[1-(trimethylsilyl)cyclobutanecarboxamido]-4,6-dihydropyrrolo[3,4-c]pyrazole-5 (1H)-carboxamide]
≤ 0.1 µM	≤ 0.05 µM	≥ 1 µM	≥ 5 µM	CC1(C)c2[nH]nc(NC(=O)C3([Si](C)(C)C)CCC3)c2CN1C(=O)Nc1c(Cl)cccc1Br [IV-207, N-(2-Bromo-6-chlorophenyl)-6,6-dimethyl-3-[1-(trimethylsilyl)cyclobutanecarboxamido]-4,6-dihydropyrrolo[3,4-c]pyrazole-5 (1H)-carboxamide]
≤ 0.1 µM	≤ 0.05 µM	≥ 1 µM	≥ 5 µM	Cc1c(F)cccc1NC(=O)N1Cc2c(NC(=O)C3([Si](C)(C)C)CCC3)n[nH]c2C1(C)C [IV-357, N-(3-Fluoro-2-methylphenyl)-6,6-dimethyl-3-[1-(trimethylsilyl)cyclobutanecarboxamido]-4,6-dihydropyrrolo[3,4-c]pyrazole-5 (1H)-carboxamide]
≤ 0.1 µM	≤ 0.05 µM	≥ 1 µM	≥ 5 µM	Cc1ccc(Cl)cc1NC(=O)N1Cc2c(NC(=O)C3([Si](C)(C)C)CCC3)n[nH]c2C1(C)C [IV-367, N-(5-Chloro-2-methylphenyl)-6,6-dimethyl-3-[1-(trimethylsilyl)cyclobutanecarboxamido]-4,6-dihydropyrrolo[3,4-c]pyrazole-5 (1H)-carboxamide]
≤ 0.1 µM	≤ 0.05 µM	≥ 1 µM	≥ 5 µM	Cc1ccc(NC(=O)N2Cc3c(NC(=O)C4([Si](C)(C)C)CCC4)n[nH]c3C2(C)C)c(C)c1 [IV-377, N-(2,4-Dimethylphenyl)-6,6-dimethyl-3-[1-(trimethylsilyl)cyclobutanecarboxamido]-4,6-dihydropyrrolo[3,4-c]pyrazole-5(1H)-carboxamide]
≤ 0.1 µM	≤ 0.05 µM	≥ 1 µM	≥ 5 µM	Cc1cccc(C)c1NC(=O)N1Cc2c(NC(=O)C3([Si](C)(C)C)CCC3)n[nH]c2C1(C)C [IV-381, N-(2,6-Dimethylphenyl)-6,6-dimethyl-3-[1-(trimethylsilyl)cyclobutanecarboxamido]-4,6-dihydropyrrolo[3,4-c]pyrazole-5(1H)-carboxamide]
≤ 0.1 µM	≤ 0.05 µM	≥ 1 µM	≥ 5 µM	Cc1ccc(F)c(NC(=O)N2Cc3c(NC(=O)C4([Si](C)(C)C)CCC4)n[nH]c3C2(C)C)c1F [IV-609, N-(2,6-Difluoro-3-methylphenyl)-6,6-dimethyl-3-[1-(trimethylsilyl)cyclobutanecarboxamido]-4,6-dihydropyrrolo[3,4-c]pyrazole-5(1H)-carboxamide]
≤ 0.1 µM	≤ 0.05 µM	≥ 1 µM	≥ 5 µM	COc1cc(F)c(NC(=O)N2Cc3c(NC(=O)C4([Si](C)(C)C)CCC4)n[nH]c3C2(C)C)c(F)c1 [IV-615, N-(2,6-Difluoro-4-methoxyphenyl)-6,6-dimethyl-3-[1-(trimethylsilyl)cyclobutanecarboxamido]-4,6-dihydropyrrolo[3,4-c]pyrazole-5(1H)-carboxamide]

Compound	GI50 [1]	Ki [2]	Ki [3]	Ki [4]
CC1(C)c2[nH]nc(NC(=O)C3([Si](C)(C)C)CCC3)c2CN1C(=O)Nc1c(Cl)cccc1C1CC1 [IV-231, N-(2-Chloro-6-cyclopropylphenyl)-6,6-dimethyl-3-[1-(trimethylsilyl)cyclobutanecarboxamido]-4,6-dihydropyrrolo[3,4-c]pyrazole-5(1H)-carboxamide]	≤ 0.1 µM	≤ 0.05 µM	≥ 1 µM	≥ 5 µM
CC1(C)c2[nH]nc(NC(=O)C3([Si](C)(C)C)CCC3)c2CN1C(=O)Nc1c(Cl)cccc1C(F)(F)F [IV-239, N-[2-Chloro-6-(trifluoromethyl)phenyl]-6,6-dimethyl-3-[1-(trimethylsilyl)cyclobutanecarboxamido]-4,6-dihydropyrrolo[3,4-c]pyrazole-5(1H)-carboxamide]	≤ 0.1 µM	≤ 0.05 µM	≥ 1 µM	≥ 5 µM

— US10894798B2, “Substituted dihydropyrrolopyrazole derivative” (UBE INDUSTRIES, LTD., priority 2015, dated 2021)
